Reference: patent US20100061928A1, “LABELLED ANALOGUES OF HALOBENZAMIDES AS RADIOPHARMACEUTICALS” (Institut National De La Sante et De La Recherche Medicale …, priority 2006, published 2010)
Structures can show the parent of a compound that is named as a salt.

Experiments:
tumour = assay: Dosimetry with regard to the tumour (MIRD programme, extrapolated to ^131I)
[1] = Elimination of the molecules: cumulative urinary and faecal excretion 0-72 hours; format: in vivo, mouse; conditions: cumulative excretion 0-72 hours
[2] = system: grafted B16 F0 murine melanoma tumour; assay: Biodistribution of the ^125I-labelled molecules in the melanoma-bearing mouse (autoradiography of whole-body sections); conditions: ^125I-labelled compound

For `CCN(CC)CCNC(=O)c1nc2ccccn2c1I` [compound 16, N-(2-diethylaminoethyl)-3-iodoimidazo[1,2-a]pyridine-2-carboxamide dihydrochloride], the Effective period (tumour; extrapolated to 131I labelling) was 7.5 h, the Biological period (tumour; from biodistribution data) was 7.8 hours and the “Faecal elimination 0-72 hours (Faeces)” value ([1]; faeces, mice in metabolic cages) was 24.0%. For the same compound, the “Urinary and faecal elimination 0-72 hours (Total)” value ([1]; urine + faeces) was 76.6%, the “Urinary elimination 0-72 hours (Urine)” value ([1]; urine, mice in metabolic cages) was 52.6% and the “Concentration of radioactivity, B 16 (tumour), Mean” value (“Concentration … (tumour), Mean” for short) ([2]; 1 H after i.v. administration) was 2.96 % ID/g. For the same compound, the “Concentration of radioactivity, Ic (intestinal contents), Mean” value (shortened to “Concentration of radioactivity, Ic”) ([2]; 1 H after i.v. administration) was 58.60 % ID/g, the “Concentration of radioactivity, Sc (stomach contents), Mean” value (“Concentration of radioactivity, Sc” below) ([2]; 1 H after i.v. administration) was 24.51 % ID/g and the “Concentration of radioactivity, blood (measured in the heart cavity), Mean” value ([2]; 1 H after i.v. administration) was 2.20 % ID/g. For the same compound, the “Concentration of radioactivity, brain, Mean” value (from here on “Concentration … brain, Mean”) ([2]; 1 H after i.v. administration) was 0.33 % ID/g, the “Concentration of radioactivity, kidney, Mean” value (“Concentration … kidney, Mean” below) ([2]; 1 H after i.v. administration) was 7.12 % ID/g and the “Concentration of radioactivity, liver, Mean” value ([2]; 1 H after i.v. administration) was 4.86 % ID/g. For the same compound, the “Concentration of radioactivity, lungs, Mean” value (“Concentration … lungs, Mean” below) ([2]; 1 H after i.v. administration) was 6.48 % ID/g, the “Concentration of radioactivity, muscle (skeletal muscle), Mean” value ([2]; 1 H after i.v. administration) was 1.10 % ID/g and the “Concentration of radioactivity, spleen, Mean” value ([2]; 1 H after i.v. administration) was 8.16 % ID/g. The “Concentration of radioactivity, uvea (pigmented tissues of the eye), Mean” value (shortened to “Concentration of radioactivity, uvea”) ([2]; 1 H after i.v. administration) was 28.30 % ID/g, the “Concentration … (tumour), Mean” value ([2]; 3 H after i.v. administration) was 5.40 % ID/g and the “Concentration of radioactivity, Ic” value ([2]; 3 H after i.v. administration) was 52.06 % ID/g. The “Concentration of radioactivity, Sc” value ([2]; 3 H after i.v. administration) was 30.71 % ID/g, the “Concentration of radioactivity, blood (measured in the heart cavity), Mean” value ([2]; 3 H after i.v. administration) was 3.93 % ID/g and the “Concentration … brain, Mean” value ([2]; 3 H after i.v. administration) was 0.36 % ID/g. The “Concentration … kidney, Mean” value ([2]; 3 H after i.v. administration) was 5.04 % ID/g, the “Concentration of radioactivity, liver, Mean” value ([2]; 3 H after i.v. administration) was 2.56 % ID/g and the “Concentration … lungs, Mean” value ([2]; 3 H after i.v. administration) was 3.38 % ID/g. For the same compound, the “Concentration of radioactivity, muscle (skeletal muscle), Mean” value ([2]; 3 H after i.v. administration) was 1.30 % ID/g, the “Concentration of radioactivity, spleen, Mean” value ([2]; 3 H after i.v. administration) was 12.67 % ID/g and the “Concentration of radioactivity, uvea” value ([2]; 3 H after i.v. administration) was 16.60 % ID/g. The “Concentration … (tumour), Mean” value ([2]; 6 H after i.v. administration) was 9.87 % ID/g, the “Concentration of radioactivity, Ic” value ([2]; 6 H after i.v. administration) was 26.14 % ID/g and the “Concentration of radioactivity, Sc” value ([2]; 6 H after i.v. administration) was 48.21 % ID/g. The “Concentration … brain, Mean” value ([2]; 6 H after i.v. administration) was 0.65 % ID/g, the “Concentration … kidney, Mean” value ([2]; 6 H after i.v. administration) was 4.47 % ID/g and the “Concentration … lungs, Mean” value ([2]; 6 H after i.v. administration) was 4.56 % ID/g. For the same compound, the “Concentration of radioactivity, uvea” value ([2]; 6 H after i.v. administration) was 22.16 % ID/g, the “Concentration … (tumour), Mean” value ([2]; 24 H after i.v. administration) was 5.22 % ID/g and the “Concentration of radioactivity, uvea” value ([2]; 24 H after i.v. administration) was 11.17 % ID/g. The “Concentration of radioactivity, Sc” value ([2]; 72 H after i.v. administration) was 3.42 % ID/g and the “Concentration of radioactivity, uvea” value ([2]; 72 H after i.v. administration) was 2.41 % ID/g.
